The subject of test [1] is A549 cells. The experiment in a line: Fluorescence imaging analysis of competitive probe uptake. It is filed as cell-based, human. How it is done:
(§1) Also, NIH/3T3, A549, C2C12 and 3T3/L1 cells, each having a population of 4×10^4 cells, were cultured on 35 mm cell culture dishes (BD Falcon™ Cell Culture Dish; BD Bioscience, CA, USA). Two days later, the cell culture medium was replaced with a glucose-depleted medium (DMEM, glucose free, GIBCO) supplemented with 0 mM, 11 mM or 55 mM D-glucose and 10 μM GB2-Cy3. After incubation at 37° C. for 30 min, the cells on the cover slips in the 35-mm cell culture dishes were washed twice with cold PBS and the cover slips were mounted on the caster of a fluorescence microscope (Olympus IX71). During observation under the fluorescence microscope, the cells were maintained at 37° C. in the chamber. Fluorescence images of 35-50 cells were taken by CCD camera (Axiocam MRm, Germany) and each cell was measured for fluorescence intensity using the image data analysis program Image-Pro® Plus (MediaCybernetics, USA). As ROIs (regions of interest), areas which encompassed cells within phase-contrast images were drawn using Image-Pro® Plus. Image-Pro® Plus analyzed CCD camera images to produce the digitized mean of fluorescence intensity within the ROIs that the present inventors had established. The background intensity was subtracted from the detected fluorescence intensity to give the fluorescence intensity value that a cell contained. In this manner, the fluorescence intensity was digitized for performing various experiments.
NIH/3T3 and A549 cells were cultured on microscope cover glasses in 35 mm cell culture dishes and subjected to fluorescence imaging analysis according to the protocol.

In test [2] the test system is NIH/3T3 cells. The experiment in a line: FACS-based flow cytometric analysis of probe uptake with/without 11 mM D-glucose. It counts as cell-based, murine. As to conditions: for reduction in cellular uptake due to 11 mM D-glucose: glucose-depleted condition normalized to 100. As for the experimental part: FACS (Fluorescence Activated Cell Sorting)-based flow cytometric analysis was used to compare cellular uptake efficiency in NIH/3T3 cells among the glucose probe [2-(N-Cy3-piperazinoethyl)]-α-D-glucose (GB2-Cy3), synthesized in Example 2, the conventional fluorescent glucose probe 2-NBDG and the glucose probe Cy3-Glc-α, synthesized in Example 1.
NIH/3T3 cells were cultured on 10 cm cell culture dishes and transferred in a volume of 3×10^5 cells into each FACS tube (5 mL, BD). They were washed once with cold PBS before incubation at 37° C. for 30 min in 11 mM D-glucose-containing PBS or glucose-free PBS in the presence of the bioprobe [GB2-Cy3 (5 μM), 2-NBDG (5 μM or 50 μM) or Cy3-Glc-α (5 μM)]. Cells that were incubated without the bioprobes were used as a negative control. After being washed with cold PBS, 1×10^4 NIH/3T3 cells were analyzed on FACSCalibur™ (FACS-based flow cytometer). GBs-Cy3 was detected by FL2 channels. Raw data of 1×10^4 cells are shown in histograms, with the mean values thereof given in the graph of FIG. 21.
For orientation: In flow cytometry, cells or beads pass a laser one at a time.

The test system of test [3] is NIH/3T3 cells. Briefly: Fluorescence imaging analysis of competitive GB2-Cy3 uptake. It is filed as cell-based, murine. As to conditions: GB2-Cy3 10 μM; 0, 11 or 55 mM D-glucose. How it is done: as §1, with “As ROIs (regions of interest), areas which encompassed cells within phase-contrast images were drawn using Image-Pro® Plus.” left out, “experiments. […]” for “experiments.”

Test [4] has as its system 3T3/L1 pre-adipocytes. Briefly: GB2-Cy3 uptake during adipocyte differentiation, FACS-based flow cytometry. It counts as cell-based, mouse. As to conditions: day 0 to day 8 of differentiation. How it is done:
(§2) For the differentiation of preadipocyte to mature adipocytes, 3T3/L1 fibroblast cells were cultured using the above mentioned culture protocol. […] When the cells start to generate lipid drops as an indication of the differentiation toward mature adipocytes, insulin was removed from the culture media. Mature adipocytes can be achieved by 8- to 12-day differentiation, and used for flow cytometric analysis and fluorescent bioimaging microscopy.
The changes in cellular glucose uptake from 3T3/L1 pre-adipocytes (day 0 of differentiation) toward more than 50% differentiation of mature adipocytes (day 8 of differentiation) were measured by FACS-based flow cytometric analysis using GB2-Cy3. The differentiation procedure was followed as described above. 1×10^4 cells were analyzed at FL2 channel of the flow cytometry. […] As mentioned above, the glucose analogue GB2-Cy3 of the present invention is useful for monitoring the differentiation of 3T3/L1 cells into mature adipocytes.

The subject of test [5] is C2C12 muscle cells. Briefly: Glucose competition and insulin response monitored by GB2-Cy3, flow cytometry. It counts as cell-based, mouse. As to conditions: D-glucose competition and insulin treatment.
Protocol: (§4) For the differentiation to mature muscle cells, C2C12 mouse myoblast cells were maintained in DMEM supplemented with 10% FBS and 1% antibiotic-antimycotic solution. When the cells reached to 100% confluency, the medium was changed to DMEM containing 2% horse serum in every two days. Experiments for flow cytometric analysis and flow cytometric analysis were carried out with cells after 3 to 5-days differentiation.
The resulting cells were incubated with 5 μM GB2-Cy3 for 15 min in the absence/presence of 11 mM D-glucose. They were washed with cold PBS, collected and analyzed using FACSCalibur™. After detection of GB2-Cy3 by FL2 channels, mean fluorescent intensity values were calculated.
For test [6] the following is noted: normal media containing 10 mM D-glucose; cited from earlier work.
The test system of test [7] is A549 cells. Briefly: Probe uptake by A549 cells, inverted fluorescent microscope (α/β anomers, alanine, 2-NBDG comparison). It counts as cell-based, human. As for the experimental part:
(§3) 1×10^4 cells were cultured on a Lab-Tek glass chamber slide (Nalge Nunc International, Naperville, Ind., USA) in 35 mm cell culture dish. After 24 h, the cells were treated for each experimental purpose. Then, the medium was replaced with RPMI 1640 medium containing 12.5 μM of Cy3-Glc-α. The cells were exposed to Cy3-Glc-α for 40 min, then washed with PBS 3 times. Finally, the glass chamber slide was taken from culture dish and loaded on the fluorescence microscope (Axiovert 200, Carl Zeiss, Germany). Fluorescence images of 35-50 cells were taken by CCD camera (Axiocam MRm, Germany) and fluorescence intensity of each cell was measured by Axiovision (program for data analysis). An area as ROIs (regions of interest) which contains a cell in phase-contrast image was drawn using Axiovision. Axiovision analyzed CCD camera images and provided the digitized mean of fluorescence intensity in the ROIs that the present inventors had established. The present inventors subtracted the background intensity from the fluorescence intensity to get the fluorescence intensity value that a cell contained. With the method described above, the present inventors digitized fluorescence intensity and performed various experiments.
To confirm the above hypothesis, real-time uptake of Cy3-Glc-α was measured, and the results were compared to those of Cy3-Glc-β by live imaging of A549 cells by using inverted fluorescent microscope. […] This led the present inventors to the conclusion that the stereochemistry at the C-1 anomeric position definitely influences the efficiency of mimicking glucose, and this might be due to the binding orientation of D-glucose in GLUTs [P. W. Hruz, M. M. Mueckler, Mole. Memb. Biol. 2001, 18, 183-193].
The cellular uptake of 2-NBDG was not detected under identical experimental conditions used for Cy3-Glc-α. […] To achieve the fluorescence intensity with 2-NBDG to 80% that of Cy3-Glc-α, a 10 fold increase in 2-NBDG concentration and a 20 fold increase in the lens exposure time in D-glucose-depleted medium were needed.
In addition, the cellular uptake of 2-NBDG in normal media (containing 10 mM D-glucose) was extremely low (>60% uptake reduction in normal media) and was hardly detected using fluorescent based imaging methods [R. G. O'Neil, L. Wu, N. Mullani, Mol. Imaging Biol. 2005, 7, 388-392]. 2-NBDG was detectable only in glucose-depleted media, and this means a critical limitation of bioapplication of 2-NBDG in the biologically significant environments. In comparison with 2-NBDG, the reduction of Cy3-Glc-α uptake in glucose-containing media was only 5% compared to that in glucose-depleted media (FIG. 18). Therefore, it was confirmed that Cy3-Glc-α was capable of being applied to a bioassay system regardless of glucose starvation.

The subject of test [8] is A549 cells. The experiment in a line: Screening of anticancer agents by Cy3-Glc-α uptake. It counts as cell-based, human. As for the experimental part:
as §3
The application was performed under the postulation that the depression of perturbed cellular metabolism in cancer cells was caused by anticancer agents, which was closely related to the reduction of glucose uptake.
The present inventors intended to monitor this phenomenon by the fluorescent bioprobe according to the present invention, that is, Cy3-Glc-α. As a proof-of-principle experiment, after A549 cancer cells were treated with taxol (9.8 μM), an anticancer agent, and the uptake of Cy3-Glc-αwas measured at 3, 6, 12, and 24 h after the treatment.
(3) In addition, after the taxol concentration was changed in the range of 490 nM to 49 nM, the uptake of Cy3-Glc-α by A549 cells was measured after 8 hr and 12 hr, and after another anticancer agent, i.e., combretastatin, (2 μM) was used to treat A549 cells, the uptake of Cy3-Glc-α by A549 cells was measured after 8 hr and 12 hr.

For test [9], the system named is 3T3/L1 adipocytes. The experiment in a line: Cellular glucose uptake under insulin, AICAR, dexamethasone monitored by GB2-Cy3. It is filed as cell-based, mouse. As to conditions: insulin 170 nM, AICAR 1 mM (1 hr) or dexamethasone 1 μM (24 hrs); GB2-Cy3 10 μM. How it is done:
as §2
Also, C2C12 cells and 3T3/L1 cells, each having a population of 6×10^4 cells, were cultured and differentiated on respective microscope cover glasses [Marlenfeld GmbH&Co., KG (Germany)] in 35 mm cell culture dishes. After removal of the differentiation media, FBS-free DMEM media containing 5.5 mM glucose were added to maintained a serum-free condition for 4 hrs. […] In this regard, an FBS-free DMEM medium containing 5.5 mM glucose or a DMEM medium free of both FBS and glucose was used. Cells were incubated at 37° C. for 30 min after which the glass chamber slides were withdrawn from the culture dishes and loaded on a chamber. […] Fluorescence images were taken every seven seconds, digitized and saved on a computer until analysis.
3T3/L1 preadipocyte cells and C2C12 […] cells were cultured in 24-well plates. […] 2×10^5 (3T3/L1) or 1×10^5 (C2C12) cells were analyzed using FACSCalibur™ and a confocal laser scanning microscope.

Test [10] relates to C2C12 muscle cells. The test is described as above. It is filed as cell-based, mouse. Conditions: insulin 170 nM, AICAR 1 mM (1 hr) or dexamethasone 1 μM (24 hrs); GB2-Cy3 5 μM.
Protocol: as §4
3T3/L1 preadipocyte cells and C2C12 fibroblast cells were cultured in 24-well plates. […] 2×10^5 (3T3/L1) or 1×10^5 (C2C12) cells were analyzed using FACSCalibur™ and a confocal laser scanning microscope.

Entries after “also recorded” stand apart in the source; their conditions may differ.

`C[N+]1=C(/C=C/C=C2/N(CCCCC(=O)N3CCN(CCOC4OC(CO)C(O)C(O)C4O)CC3)c3ccccc3C2(C)C)C(C)(C)c2ccccc21` [GB2-Cy3, [2-(N-Cy3-piperazinoethyl)]-α-D-glucose]: in [1] (GB2-Cy3 10 μM), the “cellular uptake in A549 cells compared with NIH/3T3 cells” value is reported as “observed to increase in A549 lung carcinoma cells”. Further, the “cellular uptake versus D-glucose concentration” value in test [1] (GB2-Cy3 10 μM, 0, 11 or 55 mM D-glucose) is recorded as “reduced in a D-glucose dose-dependent manner”; in test [1] (probe 12.5 μM) it was “decreased in the cellular uptake of the glucose analogues in D-glucose dose-dependent manners”; in [3], “reduced in a D-glucose dose-dependent manner”. Besides, the “change in the fluorescent intensity of ROIs when D-glucose changed from 10 mM to 55 mM” value in [1] (probe 12.5 μM) is reported as “approximately 27%”. Further, the “reduction in cellular uptake due to 11 mM D-glucose” value in test [2] (probe 5 μM) was “about 60%”. For the same compound, in [4], the “fluorescent intensity (FL2) as differentiation progressed” value was “increase in fluorescence intensity with the advance of differentiation; also recorded: the fluorescent intensity detected by FL2 channel was increased”. Also, the “uptake route of GB2-Cy3” value in test [5] is listed as “GLUT-specific uptake”.

As to `O=[N+]([O-])c1ccc(NC2C(O)OC(CO)C(O)C2O)c2nonc12` [2-NBDG, 2-[N-(7-nitrobenz-2-oxa-1,3-diazol-4-yl)amino]-2-deoxy-D-glucose], in test [6], the “uptake reduction in normal media” value was over 60%. Further, the “competition with D-glucose for cellular uptake” value in [2] (probe 5 μM, 11 mM D-glucose) was “did not compete with D-glucose for cellular uptake”. For the same compound, the “reduction in cellular uptake due to 11 mM D-glucose” value in [2] (probe 50 μM) stood at 30%. The “detection of cellular uptake under conditions identical to Cy3-Glc-α” value in test [7] (12.5 μM, 500 ms lens exposure) is “not detected”. In addition, in [7] (125 μM, 500 ms CCD lens exposure), the “fluorescence detection at 125 μM” value is reported as “little detected; also recorded: the fluorescence was not detected”. Moreover, the “fluorescence intensity of 2-NBDG relative to that of Cy3-Glc-α” value in test [7] (10 fold 2-NBDG concentration, 20 fold lens exposure time, D-glucose-depleted medium) came out at 80%.

In the case of `COc1ccc(C[C@@H](O)c2cc(OC)c(OC)c(OC)c2)cc1O` [Combretastatin], the “uptake of Cy3-Glc-α by A549 cells” value in test [8] (agent 2 μM, 6 h) is recorded as 57.4%; in [8] (agent 2 μM, 12 h), 45.0%.

For “insulin: Insulin purchased from SIGMA; stimulates GLUT4 translocation and glucose uptake”, the “effect on cellular uptake of glucose monitored by GB2-Cy3” value in test [9] and in test [10] was “enhanced cellular uptake of glucose” each time.

With `CC(=O)O[C@H]1C(=O)[C@@]2(C)[C@H]([C@H](OC(=O)c3ccccc3)[C@]3(O)C[C@H](OC(=O)[C@H](O)[C@@H](NC(=O)c4ccccc4)c4ccccc4)C(C)=C1C3(C)C)[C@]1(OC(C)=O)CO[C@@H]1C[C@@H]2O` [Taxol], the “uptake of Cy3-Glc-α by A549 cells” value worked out at 96.5% in test [8] (agent 49 nM, 6 h); 86.9% in test [8] (agent 49 nM, 12 h); 88.4% in [8] (agent 490 nM, 6 h); 61.8% in test [8] (agent 490 nM, 12 h); 54.8% in test [8] (agent 9.8 μM, 6 h); 50.2% in test [8] (agent 9.8 μM, 12 h). For the same compound, the “cellular uptake of Cy3-Glc-α versus incubation time with agent” value in test [8] (taxol 9.8 μM, 3, 6, 12, 24 h) is “reduced as the incubation time increased”.

Source of the values: US8772463B2, “Fluorescent dye-labeled glucose bioprobe, synthesis method and usage thereof” (SNU R&DB Foundation, priority 2007, dated 2014).
